How the values were obtained:
opiate receptor sites = conditions: Hughes et al, Nature 258, 577-579 (1975); cited from earlier work
[1] = tested on: opiate receptor (stereospecific naloxone binding); assay: Inhibition of stereospecific naloxone binding (Pert and Snyder technique); conditions: for ID50, concentration required to inhibit 50% of stereospecific naloxone binding: sodium 100 mM
Experimental: B., and Snyder, S., Proceedings of the National Academy of Sciences, Vol. 70, pp. 2243-2247 (1973). The potency is measured as ID50, defined as the concentration required to inhibit 50% of stereospecific naloxone binding. The concentration of sodium was 100 mM. The effectiveness is inversely related to the ID50 value.

Row | Compound | Opiate agonist potency, comparison in words (opiate receptor sites) | ID50, concentration required to inhibit 50% of stereospecific naloxone binding [1] | Potency relative to the more potent sequence of enkephalin ([1]; from ID50 values of Table 1)
1 | CSCC[C@H](NC(=O)[C@H](Cc1ccccc1)NC(=O)CNC(=O)CNC(=O)[C@@H](N)Cc1ccc(O)cc1)C(=O)O [Enkephalin sequence one, H-Tyr-Gly-Gly-Phe-Met-OH] | more potent than sequence two | 0.4 | –
2 | CC(C)C[C@H](NC(=O)[C@H](Cc1ccccc1)NC(=O)CNC(=O)CNC(=O)[C@@H](N)Cc1ccc(O)cc1)C(=O)O [Enkephalin sequence two, H-Tyr-Gly-Gly-Phe-Leu-OH] | – | 1.4 | –
3 | CSCC[C@H](NC(=O)[C@H](Cc1ccccc1)NC(=O)CNC(=O)CNC(=O)[C@@H](N)Cc1ccc(O)cc1)C(N)=O [Subject Pentapeptide, H-Tyr-Gly-Gly-Phe-Met-NH2] | – | 0.2 | twice as potent as the more potent sequence of enkephalin

From patent publication US4212797A, “Synthetic pentapeptide having opiate agonist activity” (Beckman Instruments, Inc., priority 1976, dated 1980)
